Test results reported in ChEMBL document CHEMBL4190358, “Bruton's Tyrosine Kinase Inhibitors for the Treatment of Autoimmune Diseases and Cancers” (ACS Med Chem Lett, 2017).

molecular target: Tyrosine-protein kinase BTK (Homo sapiens, UniProt Q06187); assay: Inhibition of BTK (unknown origin) using peptide substrate after 1 hr by HTRF assay
Sequence (Q06187 whole entry): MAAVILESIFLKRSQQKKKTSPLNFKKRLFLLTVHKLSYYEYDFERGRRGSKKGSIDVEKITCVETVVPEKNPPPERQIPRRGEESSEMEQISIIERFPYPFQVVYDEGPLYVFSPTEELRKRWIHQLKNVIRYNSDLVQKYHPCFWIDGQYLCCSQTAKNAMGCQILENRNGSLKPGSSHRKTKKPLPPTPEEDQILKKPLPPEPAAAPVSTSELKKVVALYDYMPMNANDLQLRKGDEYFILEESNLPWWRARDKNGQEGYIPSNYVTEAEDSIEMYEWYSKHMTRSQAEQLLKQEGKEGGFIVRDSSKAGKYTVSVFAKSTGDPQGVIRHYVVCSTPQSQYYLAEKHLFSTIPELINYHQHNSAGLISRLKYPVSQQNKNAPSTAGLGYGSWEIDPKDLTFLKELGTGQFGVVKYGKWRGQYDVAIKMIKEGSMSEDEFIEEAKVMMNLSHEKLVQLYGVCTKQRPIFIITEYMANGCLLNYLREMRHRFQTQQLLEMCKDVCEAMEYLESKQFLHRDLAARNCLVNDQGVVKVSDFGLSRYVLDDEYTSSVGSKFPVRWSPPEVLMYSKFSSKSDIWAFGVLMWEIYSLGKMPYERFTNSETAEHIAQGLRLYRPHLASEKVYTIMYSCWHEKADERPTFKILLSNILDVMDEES

`C=CC(=O)N1CC[C@@H](n2nc(-c3ccc(Oc4cccc(OC)c4C)cc3)c3cnccc32)C1` and `C=CC(=O)N1CC[C@@H](n2nc(-c3ccc(Oc4cccc(OC)c4Cl)cc3)c3cnccc32)C1` cannot be ordered by IC50: 10 to 100 nM for the first, at most 10 nM for the second.

`C=CC(=O)N1CCC[C@H](n2nc3ccncc3c2-c2ccc(Oc3cccc(Cl)c3Cl)cc2)C1` and `C=CC(=O)N1CC[C@H](n2nc3ccncc3c2-c2ccc(Oc3cccc(Cl)c3Cl)cc2)C1` cannot be ordered by IC50: at most 10 nM for the first, at most 10 nM for the second.

First: CC#CC(=O)N1CCC[C@@H](n2nc(-c3ccc(C(=O)Nc4ccccn4)cc3)c3cnccc32)C1
Second: C=CC(=O)N1CCC[C@@H](n2nc(-c3ccc(Oc4ccccc4)cc3)c3cnccc32)C1
The IC50 of the first is higher: 100 to 1000 nM for the first, at most 10 nM for the second.

Compared with `COc1cccc(Oc2ccc(-c3nn([C@@H]4CCCN(C(=O)OC(C)(C)C)C4)c4c(OC)cncc34)cc2)c1F`, `C=CC(=O)N1CCC[C@@H](n2nc(-c3ccc(Oc4cccc(OC)c4F)cc3)c3cncc(OC)c32)C1` is higher in IC50: at most 10 nM for the first, 100 to 1000 nM for the second.

`C=CC(=O)N1CC[C@@H](n2nc(-c3ccc(Sc4cccc(F)c4)cc3)c3cnccc32)C1` and `C=CC(=O)N1CCC[C@@H](n2nc(-c3ccc(Oc4cccc(Cl)c4)cc3)c3cnccc32)C1` cannot be ordered by IC50: at most 10 nM for the first, 10 to 100 nM for the second.

`O=C(Nc1ccc(-c2nn(C3CCC(C(=O)O)CC3)c3ccncc23)cc1)c1ccccc1` (configuration not stated) and `C=CC(=O)N1CC[C@@H](n2nc(-c3ccc(Oc4cccc(OC)c4F)cc3)c3c2CCN(C(C)=O)C3)C1` cannot be ordered by IC50: at least 10000 nM for the first, 1000 to 10000 nM for the second.
